Test results: paper PMC6222329 (Molecules : A Journal of Synthetic Chemistry and Natural …, 2018)

How the values were obtained:
[1] = test system: murine fibroblast healthy cell line (NIH3T3); assay: MTT cell viability assay; type: cell-based; settings: 24 h, 0.000316 µM to 1000 µM, read-out: IC50 against NIH3T3
Experimental: The active compounds (4a, 4b, 4e, 4i, 4m, 4n, 4o, and 4t) were chosen to determine their cytotoxic activity toward a murine fibroblast healthy cell line (NIH3T3). After incubating the cells with active compounds at concentrations of 0.000316 µM to1000 µM for 24 h, the cell viability was measured using the 3-(4,5-dimethylthiazol-2-yl)-2,5-diphenyltetrazolium (MTT) assay. The inhibition percentage was calculated for each concentration of the test compounds. The IC50 values of the compounds were determined using a non-linear regression analysis over the calculated percentage inhibition values, and they are presented in Table 2. Accordingly, the cytotoxicity test proposed that the active derivatives were nontoxic against NIH3T3 cells at their active concentrations against BChE.
Healthy murine embryonic fibroblast cells (NIH3T3 cell line) were used for the cytotoxicity tests. The cell line and selected compounds were prepared for an MTT assay as reported previously. The optical densities (OD) of 96 well plates were recorded at 540 nm. […]

BChE (Equine) = molecular target: T1, BChE (Equine) (Equus caballus, UniProt P81908); assay: biochemical; type: biochemical
T1 construct: purchased Sigma-Aldrich (Steinheim, Germany)
T1 sequence (P81908 whole entry): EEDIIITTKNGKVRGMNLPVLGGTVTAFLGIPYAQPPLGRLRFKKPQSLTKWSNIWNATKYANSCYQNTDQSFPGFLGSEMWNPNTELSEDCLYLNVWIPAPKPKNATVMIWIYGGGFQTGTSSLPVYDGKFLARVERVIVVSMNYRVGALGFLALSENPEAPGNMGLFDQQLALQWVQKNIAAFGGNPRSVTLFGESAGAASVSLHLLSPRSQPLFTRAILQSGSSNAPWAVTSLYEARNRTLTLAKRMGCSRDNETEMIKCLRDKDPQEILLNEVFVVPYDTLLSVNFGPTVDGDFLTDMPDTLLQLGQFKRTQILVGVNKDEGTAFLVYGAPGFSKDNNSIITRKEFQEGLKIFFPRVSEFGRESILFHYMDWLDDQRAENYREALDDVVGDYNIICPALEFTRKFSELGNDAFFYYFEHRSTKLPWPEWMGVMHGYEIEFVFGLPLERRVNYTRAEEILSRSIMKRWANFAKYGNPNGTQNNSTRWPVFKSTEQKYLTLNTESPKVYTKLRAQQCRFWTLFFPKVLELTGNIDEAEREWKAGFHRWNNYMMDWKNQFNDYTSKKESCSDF
Experimental: (§1) The assay was performed in two steps.
(§2) All enzymes were obtained from Sigma-Aldrich (Steinheim, Germany). Ellman’s reagent and the substrates were obtained from Fluka (Buchs, Switzerland). The chemicals used to prepare the buffer solution were purchased from Merck (Darmstadt, Germany).
(§3) The enzyme inhibitory activities of the synthesized compounds were investigated by applying Ellman’s method. Enzyme solutions were dissolved in gelatin solution (1%; 2.5 units/mL). […] Then, the reaction was initiated by the addition of Ellman’s reagent 5,5′-Dithiobis(2-nitrobenzoic acid) (DTNB; 20 µL/well, 10 mM) and the substrate (10 µL/well, 75 mM). […] The enzyme solution was processed as a control. All readings were adjusted with blank-reading. All assays were performed in four independent wells. […] Absorbance differences between the two readings were taken, and percentage inhibition rates were calculated according to the following formula: % Inhibition=[(A(C)−A(B))−(A(I)−A(B))]/(A(C)−A(B))×100.
(§4) • Blank (B): the well in which the inhibitor compound and substrate were not added; • Control (C): the well where the inhibitor compound was not added; • A(B): the difference in absorbance reading for the blank; • A(C): the difference in absorbance reading for the control; • A(I): the difference in absorbance reading for the inhibitor compounds.

BChE (Human) = molecular target: T2, BChE (Human) (Homo sapiens, UniProt P06276); assay: BChE inhibition, Ellman's method; type: biochemical; settings: for IC50: read-out: BChE (Human) IC50
T2 construct: purchased Sigma-Aldrich (Steinheim, Germany)
T2 sequence (P06276 29-602): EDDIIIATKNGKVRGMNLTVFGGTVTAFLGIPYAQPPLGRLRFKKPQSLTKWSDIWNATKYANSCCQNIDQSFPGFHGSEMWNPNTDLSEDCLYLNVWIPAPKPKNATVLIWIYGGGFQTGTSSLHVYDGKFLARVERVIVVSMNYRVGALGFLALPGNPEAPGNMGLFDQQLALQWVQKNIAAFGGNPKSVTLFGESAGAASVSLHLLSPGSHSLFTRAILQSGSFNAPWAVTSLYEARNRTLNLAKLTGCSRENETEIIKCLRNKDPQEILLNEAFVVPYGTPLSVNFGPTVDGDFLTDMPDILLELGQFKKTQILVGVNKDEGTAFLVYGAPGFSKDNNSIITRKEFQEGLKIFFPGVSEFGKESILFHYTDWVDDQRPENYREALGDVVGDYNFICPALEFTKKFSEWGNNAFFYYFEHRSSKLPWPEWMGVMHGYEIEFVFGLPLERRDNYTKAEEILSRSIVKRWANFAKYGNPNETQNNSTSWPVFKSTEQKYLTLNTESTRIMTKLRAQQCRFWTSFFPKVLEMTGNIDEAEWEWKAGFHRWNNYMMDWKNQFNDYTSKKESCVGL
Experimental: as §1, §2, §3, §4

AChE (Human) = molecular target: T3, AChE (Human) (Homo sapiens, UniProt P22303); assay: AChE inhibition, Ellman's method; type: biochemical
T3 construct: purchased Sigma-Aldrich (Steinheim, Germany)
T3 sequence (P22303 32-614): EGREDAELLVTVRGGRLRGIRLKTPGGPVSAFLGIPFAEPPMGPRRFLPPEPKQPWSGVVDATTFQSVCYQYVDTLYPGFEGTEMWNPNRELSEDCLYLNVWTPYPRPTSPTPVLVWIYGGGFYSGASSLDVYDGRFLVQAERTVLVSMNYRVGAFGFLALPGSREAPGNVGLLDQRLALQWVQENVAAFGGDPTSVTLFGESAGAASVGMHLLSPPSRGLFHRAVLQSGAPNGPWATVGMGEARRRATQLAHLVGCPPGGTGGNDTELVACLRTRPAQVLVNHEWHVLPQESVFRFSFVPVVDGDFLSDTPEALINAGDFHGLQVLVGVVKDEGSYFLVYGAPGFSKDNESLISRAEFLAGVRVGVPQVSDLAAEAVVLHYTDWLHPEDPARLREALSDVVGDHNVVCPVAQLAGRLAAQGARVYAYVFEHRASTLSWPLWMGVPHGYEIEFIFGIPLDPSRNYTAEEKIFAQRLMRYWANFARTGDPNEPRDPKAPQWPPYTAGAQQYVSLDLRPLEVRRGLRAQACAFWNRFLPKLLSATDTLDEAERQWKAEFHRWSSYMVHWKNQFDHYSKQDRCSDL
Experimental: as §1, §2, §3, §4

[2] = molecular target: T4, AChE (Electrophorus electricus) (Electrophorus electricus, UniProt O42275); assay: AChE inhibition, Ellman's method; type: biochemical
T4 construct: purchased Sigma-Aldrich (Steinheim, Germany)
T4 sequence (O42275 24-633): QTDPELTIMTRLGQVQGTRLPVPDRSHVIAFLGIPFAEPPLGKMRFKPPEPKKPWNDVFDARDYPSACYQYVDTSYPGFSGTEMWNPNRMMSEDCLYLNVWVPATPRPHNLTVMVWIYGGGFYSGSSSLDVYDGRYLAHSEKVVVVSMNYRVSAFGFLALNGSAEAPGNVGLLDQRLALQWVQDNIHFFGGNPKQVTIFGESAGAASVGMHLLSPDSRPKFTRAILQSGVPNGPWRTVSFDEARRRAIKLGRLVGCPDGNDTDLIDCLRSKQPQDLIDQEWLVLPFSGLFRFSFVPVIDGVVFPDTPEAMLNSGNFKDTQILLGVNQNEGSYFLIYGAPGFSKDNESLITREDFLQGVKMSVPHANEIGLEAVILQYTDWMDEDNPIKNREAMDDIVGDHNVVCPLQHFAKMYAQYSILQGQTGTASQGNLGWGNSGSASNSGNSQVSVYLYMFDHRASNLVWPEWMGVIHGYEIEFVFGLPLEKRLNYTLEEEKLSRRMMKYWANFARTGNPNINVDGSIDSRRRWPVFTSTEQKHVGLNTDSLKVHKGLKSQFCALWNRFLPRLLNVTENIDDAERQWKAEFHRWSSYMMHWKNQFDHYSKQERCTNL
Experimental: as §1, §2, §3, §4

SMILES	IC50 [1] [µM]	IC50 (BChE (Equine)) [µM]	BChE (Equine) inhibitory activity (%) ± SD (BChE (Equine); 10^-3 M) [%]	BChE (Equine) inhibitory activity (%) ± SD (BChE (Equine); 10^-4 M)	BChE (Equine) inhibitory activity (%) ± SD (BChE (Equine); 10^-5 M) [%]	BChE (Equine) inhibitory activity (%) ± SD (BChE (Equine); 10^-6 M) [%]	BChE (Equine) inhibitory activity (%) ± SD (BChE (Equine); 10^-7 M) [%]	BChE (Equine) inhibitory activity (%) ± SD (BChE (Equine); 10^-8 M) [%]	BChE (Equine) inhibitory activity (%) ± SD (BChE (Equine); 10^-9 M) [%]	BChE (Human) inhibitory activity (%) ± SD (BChE (Human); 10^-3 M) [%]	BChE (Human) inhibitory activity (%) ± SD (BChE (Human); 10^-4 M)	BChE (Human) inhibitory activity (%) ± SD (BChE (Human); 10^-5 M) [%]	BChE (Human) inhibitory activity (%) ± SD (BChE (Human); 10^-6 M) [%]	BChE (Human) inhibitory activity (%) ± SD (BChE (Human); 10^-7 M) [%]	BChE (Human) inhibitory activity (%) ± SD (BChE (Human); 10^-8 M) [%]	BChE (Human) inhibitory activity (%) ± SD (BChE (Human); 10^-9 M) [%]	IC50 (BChE (Human)) [µM]	AChE (Human) inhibitory activity (%) ± SD (AChE (Human); 10^-3 M) [%]	AChE (Human) inhibitory activity (%) ± SD (AChE (Human); 10^-4 M) [%]	AChE (Electrophorus electricus) inhibitory activity (%) ± SD ([2]; 10^-3 M) [%]	other results
O=C(CSC(=S)N1CCN(c2ccc(Cl)cc2)CC1)Nc1c2ccccc2nc2ccccc12 [Compound 4i, 2-(9-Acridinylamino)-2-oxoethyl 4-(4-chlorophenyl)piperazine-1-carbodithioate]	> 1000	2.04 ± 0.068	99.37±3.41	* 69.51 ± 1.16%	44.32±0.79	38.72±0.82	33.65±0.45	26.52±0.80	25.73±0.70	98.22±2.14	* 72.90 ± 1.08%	42.99±1.02	35.00±0.87	30.49±0.56	21.77±0.40	20.69±0.38	2.1 ± 0.085	89.20±1.25	33.85 ± 1.15	86.41±2.91	AChE (Electrophorus electricus) inhibitory activity (%) ± SD ([2]; 10^-4 M): 35.91 ± 1.57%
O=C(CSC(=S)N1CCN(C(c2ccccc2)c2ccccc2)CC1)Nc1c2ccccc2nc2ccccc12 [Compound 4m, 2-(9-Acridinylamino)-2-oxoethyl 4-benzhydrylpiperazine-1-carbodithioate]	214	0.092 ± 0.001	99.65±3.86	* 98.96 ± 3.47%	90.78±3.92	80.30±2.56	40.34±0.61	30.24±0.70	18.98±0.20	98.18±2.71	* 97.50 ± 2.06%	92.54±2.45	81.25±2.08	44.61±0.79	29.11±0.63	17.00±0.33	0.093 ± 0.002	75.18±1.21	27.38 ± 1.10	71.23±2.15	fold better BChE inhibition in comparison with donepezil (BChE (Human); ratio of IC50 values): 15.4 fold; AChE (Electrophorus electricus) inhibitory activity (%) ± SD ([2]; 10^-4 M): 25.43 ± 1.21%
